Activity calls are given as the source filed them.
Key:
[1] = molecular target: T1, Low molecular weight phosphotyrosine protein phosphatase (Homo sapiens, UniProt P24666); type: functional; settings: read-out: IC50_Mean
T1 sequence (P24666 whole entry): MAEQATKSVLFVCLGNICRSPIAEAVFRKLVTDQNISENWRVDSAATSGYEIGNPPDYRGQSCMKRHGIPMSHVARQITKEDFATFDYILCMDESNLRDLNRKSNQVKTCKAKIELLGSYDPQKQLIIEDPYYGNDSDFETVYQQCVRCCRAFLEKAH

[2] = molecular target: T1, Low molecular weight phosphotyrosine protein phosphatase; type: functional; settings: read-out: IC50_Mean; remark: listed apart in the source
[3] = intracellular Trypanosoma cruzi inhibitors in host cells – cell-based, plate reader, cherry-pick samples, set 3, dose response (AID 651818); type: functional;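 further: compounds incubated with infected cells for about four days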
[4] = mouse fibroblast viability loss – cell-based, cherry-pick samples, set 2, cytotoxicity control for T. cruzi growth inhibitor project, dose response (AID 651817); type: functional; settings: NIH3T3
[5] = molecular target: T2, ATP-dependent translocase ABCB1 (Homo sapiens, UniProt P08183); test: P-gp JC-1 efflux blockade concentration-response – Jurkat-DNR cells, flow cytometry, set 2, dose response (AID 504569); type: functional; settings: read-out: EC50_MICROM_;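 further: potency of pump inhibitors that raise cellular JC-1 green fluorescence up to the nicardipine level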
T2 sequence (P08183 whole entry): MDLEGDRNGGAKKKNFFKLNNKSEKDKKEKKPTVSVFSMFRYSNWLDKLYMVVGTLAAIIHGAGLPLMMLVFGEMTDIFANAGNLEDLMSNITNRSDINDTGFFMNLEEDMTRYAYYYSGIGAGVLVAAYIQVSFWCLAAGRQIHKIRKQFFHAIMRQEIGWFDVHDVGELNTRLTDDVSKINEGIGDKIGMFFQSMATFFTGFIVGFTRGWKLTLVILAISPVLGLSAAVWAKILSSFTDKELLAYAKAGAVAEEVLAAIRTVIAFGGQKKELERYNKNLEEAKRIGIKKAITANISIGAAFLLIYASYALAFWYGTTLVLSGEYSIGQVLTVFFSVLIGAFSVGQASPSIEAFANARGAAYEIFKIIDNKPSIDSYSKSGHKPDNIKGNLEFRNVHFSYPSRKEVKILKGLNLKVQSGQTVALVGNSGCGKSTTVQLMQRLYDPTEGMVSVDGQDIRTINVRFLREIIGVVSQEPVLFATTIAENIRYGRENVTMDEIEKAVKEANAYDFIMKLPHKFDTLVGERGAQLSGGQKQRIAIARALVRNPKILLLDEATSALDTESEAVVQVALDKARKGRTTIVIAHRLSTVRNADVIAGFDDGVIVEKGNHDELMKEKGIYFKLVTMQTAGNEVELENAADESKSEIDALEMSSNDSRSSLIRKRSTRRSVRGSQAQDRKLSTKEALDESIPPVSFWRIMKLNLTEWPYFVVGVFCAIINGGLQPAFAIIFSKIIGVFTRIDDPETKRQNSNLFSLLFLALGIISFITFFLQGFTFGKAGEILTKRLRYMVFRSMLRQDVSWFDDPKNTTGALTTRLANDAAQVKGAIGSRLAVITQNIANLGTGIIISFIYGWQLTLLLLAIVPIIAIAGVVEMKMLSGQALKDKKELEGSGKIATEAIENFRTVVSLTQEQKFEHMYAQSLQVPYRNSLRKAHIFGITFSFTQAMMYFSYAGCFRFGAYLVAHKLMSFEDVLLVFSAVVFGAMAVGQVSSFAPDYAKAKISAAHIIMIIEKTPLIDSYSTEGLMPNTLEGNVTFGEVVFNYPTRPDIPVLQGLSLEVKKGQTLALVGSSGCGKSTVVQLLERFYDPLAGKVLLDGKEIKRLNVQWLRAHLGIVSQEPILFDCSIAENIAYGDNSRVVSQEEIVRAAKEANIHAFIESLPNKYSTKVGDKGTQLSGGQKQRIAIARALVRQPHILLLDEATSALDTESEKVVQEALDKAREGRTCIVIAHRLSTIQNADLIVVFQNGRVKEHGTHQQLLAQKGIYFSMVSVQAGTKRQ

[6] = molecular target: T2, ATP-dependent translocase ABCB1; test: inhibition of BCRP-mediated JC-1 efflux – Ig-MXP3 cells, flow cytometry, set 2, dose response (AID 504566); type: functional; settings: read-out: EC50_MICROM_;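 further: flow cytometry median green fluorescence of retained JC-1 dye; potency of efflux pump inhibition measured as rising substrate retention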
[7] = inhibitors of EBV LMP1 NF-kappaB signaling – cell-based, luciferase reporter, luminescence, dry powder, set 2, dose response (AID 624376); type: functional
[8] = molecular target: T3, Heat shock factor protein 1 (Mus musculus, UniProt P38532); test: decrease of HSF1-responsive luciferase luminescence – cell-based, NIH3T3, dose retest, confirmation (AID 2382); type: functional;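 further: NIH3T3 fibroblasts with HSF1-driven luciferase reporter stressed by proteasome inhibitor MG132; luminescence from HSF1-driven luciferase expression after 8 hours of MG132 stress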
T3 sequence (P38532 whole entry): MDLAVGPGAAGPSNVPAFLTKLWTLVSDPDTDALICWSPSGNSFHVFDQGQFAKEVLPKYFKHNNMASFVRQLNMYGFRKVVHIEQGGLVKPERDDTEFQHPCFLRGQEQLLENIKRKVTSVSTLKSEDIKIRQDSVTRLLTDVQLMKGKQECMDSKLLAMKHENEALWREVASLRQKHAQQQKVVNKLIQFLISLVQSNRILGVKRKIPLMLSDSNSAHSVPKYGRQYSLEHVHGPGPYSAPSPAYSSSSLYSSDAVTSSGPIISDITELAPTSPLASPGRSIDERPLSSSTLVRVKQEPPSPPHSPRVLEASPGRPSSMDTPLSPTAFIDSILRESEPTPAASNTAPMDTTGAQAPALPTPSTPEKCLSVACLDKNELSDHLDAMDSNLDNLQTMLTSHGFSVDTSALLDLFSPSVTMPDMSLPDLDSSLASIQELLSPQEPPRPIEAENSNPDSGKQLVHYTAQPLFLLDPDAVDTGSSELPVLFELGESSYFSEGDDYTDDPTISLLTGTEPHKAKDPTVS

HEK293 [9] = test: cells; type: functional, cell-based; settings: Homo sapiens
HEK293 [10] = test: cells; type: functional, cell-based; settings: Homo sapiens; remark: listed apart in the source
HEK293 [11] = test: inhibition of NOD1-driven NF-kB reporter – cell-based, luminescence, uHTS, primary screen (AID 1578); type: functional; settings: Homo sapiens
[12] = molecular target: Photoreceptor-specific nuclear receptor (Homo sapiens, UniProt Q9Y5X4); type: functional, cell-based;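 further: CHO-S cells with Gal4-NCOR and VP16-NR2E3 two-hybrid luciferase reporter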
Sequence of Photoreceptor-specific nuclear receptor (Q9Y5X4 whole entry, the tested form may be a part): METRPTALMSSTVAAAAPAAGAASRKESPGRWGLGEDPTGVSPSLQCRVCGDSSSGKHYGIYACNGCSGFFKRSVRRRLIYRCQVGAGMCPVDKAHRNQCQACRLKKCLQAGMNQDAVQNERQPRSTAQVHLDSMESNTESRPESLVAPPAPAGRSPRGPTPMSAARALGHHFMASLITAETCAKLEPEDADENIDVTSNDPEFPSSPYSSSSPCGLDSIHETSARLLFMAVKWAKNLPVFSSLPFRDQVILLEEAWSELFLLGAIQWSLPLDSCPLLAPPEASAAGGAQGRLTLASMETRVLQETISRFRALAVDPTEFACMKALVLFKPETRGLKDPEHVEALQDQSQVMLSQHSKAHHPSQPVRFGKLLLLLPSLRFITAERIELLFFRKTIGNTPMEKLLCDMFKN

Nonstructural protein 1 = Nonstructural protein 1 (Influenza A virus, UniProt Q194T2); type: functional, Influenza A virus (A/California/07/2009(H1N1))
Sequence of Nonstructural protein 1 (Q194T2 whole entry): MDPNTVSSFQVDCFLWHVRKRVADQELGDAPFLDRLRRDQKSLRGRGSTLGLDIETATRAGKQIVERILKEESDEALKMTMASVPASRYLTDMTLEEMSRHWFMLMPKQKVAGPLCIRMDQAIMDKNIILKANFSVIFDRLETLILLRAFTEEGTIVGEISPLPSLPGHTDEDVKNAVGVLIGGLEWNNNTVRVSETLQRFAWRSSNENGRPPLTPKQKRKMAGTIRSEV

HEK293 [13] = test: NOD2 signaling inhibitors in MDP-stimulated cells, cell-based, uHTS, luminescence (AID 2001); type: functional; settings: Homo sapiens
Protein Wnt-3a = Protein Wnt-3a (Mus musculus, UniProt P27467); test: antagonism of Wnt3a pathway luciferase reporter – Wnt-LIGHT cells, luminescence, selectivity assay for Gli-SUFU antagonist project, dose response (AID 651570); type: functional; settings: read-out: IC50_Mean;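 further: Wnt-LIGHT reporter cells stimulated with conditioned medium from Wnt3a-producing cells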
Sequence of Protein Wnt-3a (P27467 whole entry): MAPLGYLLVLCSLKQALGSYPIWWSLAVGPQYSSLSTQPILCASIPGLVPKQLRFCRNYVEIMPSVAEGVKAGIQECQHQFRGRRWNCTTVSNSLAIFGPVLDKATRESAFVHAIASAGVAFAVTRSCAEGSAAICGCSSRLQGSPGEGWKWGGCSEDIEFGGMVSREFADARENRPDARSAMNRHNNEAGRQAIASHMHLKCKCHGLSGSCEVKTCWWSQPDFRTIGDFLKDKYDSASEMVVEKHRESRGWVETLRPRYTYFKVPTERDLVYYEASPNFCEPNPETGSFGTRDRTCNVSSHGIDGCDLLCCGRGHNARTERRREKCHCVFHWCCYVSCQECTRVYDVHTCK

[14] = molecular target: T4, Small ubiquitin-related modifier 2 (Homo sapiens, UniProt P61956); test: SUMO2 binding disruption by SUMO1 hits – biochemical, FRET, human SUMO2, uHTS hits, selectivity assay for SUMO1 interaction inhibitor project, dose response (AID 624384); type: functional; settings: read-out: IC50_Mean
T4 sequence (P61956 whole entry): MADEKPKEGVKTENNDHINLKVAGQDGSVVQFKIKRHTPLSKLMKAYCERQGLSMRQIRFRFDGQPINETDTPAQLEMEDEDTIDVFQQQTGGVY

[15] = molecular target: T5, Probable nicotinate-nucleotide adenylyltransferase (Staphylococcus aureus (strain N315), UniProt P65502); type: functional, Staphylococcus aureus subsp. aureus N315; settings: read-out: IC50_Mean;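 on IC50 Mean: confirmatory dose-response retesting of NadD inhibitor hits first found in an ultra-high-throughput screen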
T5 sequence (P65502 whole entry): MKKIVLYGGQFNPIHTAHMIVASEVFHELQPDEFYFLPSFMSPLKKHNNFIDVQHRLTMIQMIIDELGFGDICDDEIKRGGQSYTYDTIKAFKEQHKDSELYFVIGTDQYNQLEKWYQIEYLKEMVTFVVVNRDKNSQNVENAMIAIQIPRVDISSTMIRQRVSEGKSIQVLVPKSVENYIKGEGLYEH

[16] = molecular target: T6, Small ubiquitin-related modifier 1 (Homo sapiens, UniProt P63165); test: SUMO1 protein interaction blockers, potency – biochemical, fluorescence polarization, uHTS hits, dose response (AID 624382); type: functional; settings: read-out: IC50_Mean
T6 sequence (P63165 whole entry, the tested form may be a part): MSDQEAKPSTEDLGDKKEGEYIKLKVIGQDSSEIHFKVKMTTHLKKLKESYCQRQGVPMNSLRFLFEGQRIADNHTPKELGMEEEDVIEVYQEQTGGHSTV

[17] = molecular target: T7, Polyadenylate-binding protein 1 (Homo sapiens, UniProt P11940); test: MLLE domain peptide-binding blockers, IC50 – biochemical, fluorescence polarization, FITC-PAM2 peptide, dose response (AID 602259); type: functional; settings: read-out: IC50_Mean
T7 sequence (P11940 whole entry, the tested form may be a part): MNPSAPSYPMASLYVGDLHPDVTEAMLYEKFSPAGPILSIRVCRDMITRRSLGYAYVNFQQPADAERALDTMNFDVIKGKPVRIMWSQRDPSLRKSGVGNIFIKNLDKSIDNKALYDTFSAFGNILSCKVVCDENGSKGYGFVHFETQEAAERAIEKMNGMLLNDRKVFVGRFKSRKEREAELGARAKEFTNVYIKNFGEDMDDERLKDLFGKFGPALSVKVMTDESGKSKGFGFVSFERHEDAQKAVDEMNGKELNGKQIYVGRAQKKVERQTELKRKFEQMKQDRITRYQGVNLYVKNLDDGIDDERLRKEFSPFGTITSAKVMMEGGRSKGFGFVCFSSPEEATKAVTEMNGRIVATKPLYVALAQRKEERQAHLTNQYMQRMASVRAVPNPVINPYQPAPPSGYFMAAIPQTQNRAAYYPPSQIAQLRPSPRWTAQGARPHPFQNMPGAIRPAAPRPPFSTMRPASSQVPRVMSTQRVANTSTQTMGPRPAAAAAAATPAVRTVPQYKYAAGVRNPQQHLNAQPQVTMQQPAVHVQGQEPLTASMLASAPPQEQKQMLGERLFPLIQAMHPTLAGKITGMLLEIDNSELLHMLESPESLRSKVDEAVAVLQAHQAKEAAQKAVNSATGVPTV

[18] = molecular target: T6, Small ubiquitin-related modifier 1; test: SUMO1 protein-protein binding blockers, potency – biochemical, FRET, dose response (AID 624383); type: functional; settings: read-out: IC50_Mean
[19] = molecular target: T7, Polyadenylate-binding protein 1; test: MLLE binding blockers, Cy5 peptide tracer – biochemical, fluorescence polarization, Cy5-PAM2 peptide, secondary, miRNA deadenylation inhibitor project, dose response (AID 602260); type: functional; settings: read-out: IC50_Mean
[20] = molecular target: T4, Small ubiquitin-related modifier 2; test: disruption of SUMO2 interaction with SIM peptide – biochemical, fluorescence polarization, uHTS hits, selectivity assay for SUMO1 interaction inhibitor project, dose response (AID 624385); type: functional; settings: read-out: IC50_Mean
[21] = molecular target: T5, Probable nicotinate-nucleotide adenylyltransferase; type: functional, Staphylococcus aureus subsp. aureus N315

## O=C(CCCOc1ccc(Cl)cc1Cl)NNC(=O)c1ccc(NC(=O)c2ccccc2)cc1
[1]
  IC50: 11.2 µM (active)
[2]
  IC50: 8.44 µM (active)

## C[C@H]1CN([C@@H](C)CO)C(=O)c2cccc(NC(=O)c3nc4ccccc4s3)c2O[C@H]1CN(C)S(=O)(=O)c1ccccc1
[3]
  AC50: 2.55 µM (active)
[4]
  AC50: 39 µM (inactive)

## O=C(c1ccco1)N1CCN(c2cc(-c3ccccc3)nc3cc(-c4cccc(F)c4)nn23)CC1
[5]
  EC50: 3.4 µM (active)
[6]
  EC50: 1.05 µM (active)

## C[C@@H]1CN([C@@H](C)CO)C(=O)Cc2cc(NC(=O)Cc3ccccc3)ccc2O[C@H]1CN(C)Cc1ccc(C(F)(F)F)cc1
[7]
  AbsAC35: 115.61 µM

## CCOc1ccc(-c2nc(CSCC(=O)N3CCN(c4cccc(OC)c4)CC3)c(C)o2)cc1
[8]
  EC50: 48 µM (active)
HEK293 [9]
  IC50: 8.52 µM (active)
HEK293 [10]
  IC50: 4.42 µM (active)
HEK293 [11]
  EC50: 5.87 µM (active)
[12]
  IC50: 4 µM (active)
Nonstructural protein 1
  IC50: > 100 µM (active)
HEK293 [13]
  IC50: 5.09 µM (active)

## C=CCNC(=S)/N=c1/ccccn1Cc1ccccc1
Protein Wnt-3a
  IC50: 40.8 µM (inactive)

## O=C(Nc1ccc2nc(-c3ccco3)c(-c3ccco3)nc2c1)N1CCN(c2ccccn2)CC1
[14]
  IC50: 24.6 µM (inactive)
[15]
  IC50: 19.7 µM (active)
[16]
  IC50: 6.94 µM (active)
[17]
  IC50: > 66 µM (inactive)
[18]
  IC50: 51.7 µM (inactive)
[19]
  IC50: > 66 µM (inactive)
[20]
  IC50: 8.13 µM (active)
[21]
  IC50: 8.98 µM (active)

— ChEMBL document CHEMBL1201862, “PubChem BioAssay data set” (2004)
